Experiment [1] addresses T1, Lpd protein (Mycobacterium tuberculosis, UniProt P9WHH9).
T1 construct: made in house
T1 sequence (P9WHH9 1-464): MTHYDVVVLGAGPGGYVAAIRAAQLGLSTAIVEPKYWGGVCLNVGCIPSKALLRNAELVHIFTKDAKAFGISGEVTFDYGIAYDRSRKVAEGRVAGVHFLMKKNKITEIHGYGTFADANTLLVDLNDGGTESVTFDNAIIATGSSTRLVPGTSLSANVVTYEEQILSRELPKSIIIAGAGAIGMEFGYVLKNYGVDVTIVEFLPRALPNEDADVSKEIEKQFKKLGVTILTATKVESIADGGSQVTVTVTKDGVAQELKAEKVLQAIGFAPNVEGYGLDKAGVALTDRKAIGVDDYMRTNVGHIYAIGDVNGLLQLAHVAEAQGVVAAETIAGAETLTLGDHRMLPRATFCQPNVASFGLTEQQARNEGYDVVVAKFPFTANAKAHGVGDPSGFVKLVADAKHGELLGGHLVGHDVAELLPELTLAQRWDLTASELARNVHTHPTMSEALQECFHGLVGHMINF
The experiment can be described thus: Surface plasmon resonance (SPR) binding to immobilized Lpd. Particulars: 25 °C.

Experiment [2] addresses T2, Mtb Lpd (Mycobacterium tuberculosis, UniProt P9WHH9).
T2 construct: made in house
The experiment can be described thus: Lpd enzyme assay (spectrophotometric, DTNB, lipoamide, NADH). In kind it is biochemical. Particulars: for potency improvement over des-methyl screen hit: methylated analogue vs Z1765676493 / Z819807984, Lpd IC50; for IC50: dose response 100 to 0.005 μM, values marked * from one replicate; for inhibition at 10 µM: compound at 10 μM, read-out: LPD %inh ± SD at 10 μM. As to the method:
The Lpd enzyme assay was performed at a CRO with a previously reported protocol.[9],[11] Briefly, the Lpd activity was measured by a spectrophotometric assay with DTNB, lipoamide, and NADH. Final concentrations of components in the reaction mixture were as follows: 125 μM NADH, 125 μM DTNB, 40 μM NAD+, 75 μM lipoamide in 25 mM potassium phosphate, and 1 mM EDTA pH 7.0. Compounds were tested initially at 10 μM. Compounds showing significant inhibition at 10 μM were tested in dose–response from 100 to 0.005 μM by serial dilutions. Curves were fit, and IC50 values were calculated using Prism dose–response inhibition analysis (four-parameter fit).

In experiment [3] the test system is Mtb. Put plainly: Mtb MIC assay (bacterial growth inhibition). The experiment is classed as cell-based, Mycobacterium tuberculosis. Particulars: for Mtb MIC: Table S1, known actives used as probes in GPU Shape screen.
Experiment [4] relates to Mtb. Also on record: method as in PMID 33527832. Particulars: Figure 1, representative sulfonamide series inhibitors; cited from earlier work.
Experiment [5] has as its target T3, PDH complex (Mycobacterium tuberculosis, UniProt P9WHH9).
T3 sequence (P9WHH9 1-464): T1 sequence (P9WHH9 1-464)
The experiment can be described thus: PDH complex inhibition. The experiment is classed as biochemical.

The target in experiment [6] is T2, Mtb Lpd. Particulars: read-out: Lpd IC50; Figure 1, representative sulfonamide series inhibitors; cited from earlier work.
Where [7] appears, read: 1:1 Langmuir model, analyte line 013537.

Like-named read-outs stand apart in the source and are kept apart here.

On to `CC(=O)Nc1cccc(NC(=O)CN(C)S(=O)(=O)c2cc(C)cc(C(F)F)c2)c1` [1 (TDI-13537)], for which, in experiment [1] (setting [7]), the Kd (usually the free concentration of one partner at which half of the binding sites on the other are occupied at equilibrium, for simple one-to-one binding) stood at 0.241 µM and the kd turned out to be 0.01243 s⁻¹. Also, in experiment [1] (analyte line 013537-NADH), the Kd amounted to 0.291 µM and the kd was 0.01141 s⁻¹. Further, the “potency improvement over des-methyl screen hit” value in experiment [2] is 15- to 20 fold. Also, the “inhibition of Mtb bacterial growth in the MIC assay” value in experiment [3] (data not shown) is on record as “did not show inhibition”.

For the compound `CCN(CC(=O)Nc1ccc(N2CCOCC2)cc1)S(=O)(=O)c1cc(C)c(F)c(C(F)(F)F)c1` [Compound 2], in experiment [2], the IC50 (commonly the point on the concentration scale where inhibition reaches its midpoint) was 0.37 µM and the “potency improvement over des-methyl screen hit” value is listed as 15- to 20 fold.

As to `CCOC(=O)c1c(C)n[nH]c1S(=O)(=O)N(C)CC(=O)Nc1ccc(F)cc1` [Compound Z740306332], in experiment [2], the inhibition at 10 µM turned out to be 9.6 ± 1.8% and half-maximal inhibition (IC50) required 100 µM.

Turning to `CCN(CC(=O)Nc1ccc(N2CCOCC2)cc1)S(=O)(=O)c1ccc(F)c(C(F)(F)F)c1` [Compound Z819807984], in experiment [2], the inhibition at 10 µM was 68.9 ± 0.9% and the midpoint of inhibition, the IC50, lay at 5 ± 0.04 µM.

For the compound `COC(=O)c1cccc(NC2CCN(C(=O)c3cc(C)cc4cn[nH]c34)CC2)c1` [Compound Z1464810837], in experiment [2], the inhibition at 10 µM was 15.7 ± 4.6% and it took 30 µM to reach half-maximal inhibition (IC50).

As to `CCN(CC(=O)Nc1cccc(OC)c1)S(=O)(=O)c1cccc2c1NC(=O)CO2` [Compound Z1601661851], in experiment [2], the inhibition at 10 µM stood at 18.5 ± 1.6% and half-maximal inhibition (IC50) was put at 30 µM.

For `CN(CC(=O)Nc1cccc(F)c1)S(=O)(=O)c1cccc2c1NC(=O)CO2` [Compound Z1601662276], in experiment [2], the inhibition at 10 µM worked out at 12.7 ± 1.2% and 100 µM corresponded to half-maximal inhibition (IC50).

`CC(=O)Nc1cccc(NC(=O)CN(C)S(=O)(=O)c2cccc(C(F)F)c2)c1` [Compound Z1765676493]: in experiment [2], the inhibition at 10 µM worked out at 69.1 ± 2.2% and the IC50 was determined as 3.5 ± 2.8 µM.

Regarding `COc1ccc(NC(=O)CN(C)S(=O)(=O)c2cc(Br)cnc2N)cc1` [SL827], in experiment [4], the “Mtb MIC” value was above 100 µM.

As to `Cc1cc(S(=O)(=O)N(C)CC(=O)Nc2ccn(C)c(=O)c2)c2[nH]ncc2c1` [TDI-010705], the “Mtb MIC” value in experiment [4] is 3.7 µM; in experiment [3], 4 µM.

On to `Cc1cc(S(=O)(=O)N2CCC[C@H]2C(=O)Nc2ccn(C)c(=O)c2)c2[nH]ncc2c1` [TDI-011002], for which the IC50 in experiment [5] is 0.19 µM; in experiment [6], 0.05 µM. In addition, the “Mtb MIC” value in experiment [4] and in experiment [3] was 25 µM in each case.

Values taken from article PMC10739260, “Shape-Based Virtual Screening of a Billion-Compound Library Identifies Mycobacterial Lipoamide Dehydrogenase Inhibitors” (ACS Bio & Med Chem Au, 2023).
